Values after ≈ are worked out from the molar mass of the structure shown. Each block holds one molecule with its values, some of them ahead of it.
What was measured:
C. albicans ATCC MYA-573 = test: Antifungal activity (GI80), growth inhibition in YPD20 medium by absorbance at 600 nm; format: cell-based; conditions: minimum concentration for at least 80% cell growth inhibition, 37° C., absorbance 600 nm; for IC80: Candida albicans, read-out: GI80 (μg/ml) C. albicans ATCC MYA-573
Experimental: (§1) The antifungal activity of the compounds of the invention was determined according to the method mentioned below.
(§2) An YPD20 medium (1% yeast extract, 2% peptone, 20% glucose) was used,
(§3) (2) Preparation of Cell Liquid for Inoculation:
(§4) Cells incubated overnight with Sabouraud dextrose agar at 30° C. were suspended in 0.1% Tween 80-added saline, and then added to a concentrated medium (1.33% yeast extract, 2.67% peptone, 13.33% glucose) so that the final cell concentration could be 5×10^3 cells/ml, thereby preparing a cell liquid for inoculation.
(§5) (3) Production of Chemical Dilution Plate:
(§6) A metered sample was dissolved in dimethyl sulfoxide, and a 2-fold dilution series was prepared using dimethyl sulfoxide. A chemical dilution of 2 μl each was added to a flat-bottom 96-well plate with 40% glucose (48 μl) put in each well, thereby producing a chemical dilution plate.
(§7) (4) Inoculation and Cultivation of Cell Liquid:
(§8) The cell liquid (150 μl) prepared in (2) was added to the chemical dilution plate produced in (3), followed by aerobic static cultivation at 37° C.
(§9) (5) Determination of Antifungal Activity (GI80 Value):
(§10) After cultivation for […], the plate was stirred, and its absorbance (600 nm) was measured. Based on the absorbance as the index, the minimum chemical concentration for at least 80% cell growth inhibition relative to the cell growth in the chemical-free well was computed as a GI80 value.

C. albicans ATCC90028 = test: as above; format: cell-based; conditions: 37° C., absorbance 600 nm; for IC80: Candida albicans, ATCC90028, minimum concentration for at least 80% cell growth inhibition, read-out: GI80 (μg/ml) C. albicans ATCC90028; for GI80 (μg/ml) C. albicans ATCC90028: minimum concentration for at least 80% cell growth inhibition
Experimental: as §1, §2, §3, §4, §5, §6, §7, §8, §9, §10

C. glabrata ATCC48435 = test: as above; format: cell-based; conditions: 37° C., absorbance 600 nm; for IC80: Nakaseomyces glabratus, ATCC48435, minimum concentration for at least 80% cell growth inhibition, read-out: GI80 (μg/ml) C. glabrata ATCC48435; for GI80 (μg/ml) C. glabrata ATCC48435: minimum concentration for at least 80% cell growth inhibition
Experimental: as §1, §2, §3, §4, §5, §6, §7, §8, §9, §10

melting point: 82 to 86 °C
SMILES: Cc1c(Br)c(N2CC[C@H](N(C)C)C2)c2oc(C3CC3)nc2c1C#N

melting point: 168 to 170 °C (dec.)
SMILES: Cc1c(-c2ccccc2)c(N2CC[C@H](N(C)C)C2)c2oc(C(C)C)nc2c1C#N.Cl

melting point: 125 to 128 °C
SMILES: Cc1c(-c2ccccc2)c(N2CC[C@H](N(C)C)C2)c2oc(N3CC(CC(=O)O)C3)nc2c1C#N

melting point: 114 to 116 °C
SMILES: Cc1c(-c2ccccc2)c(C2=CC(N(C)C)CC2)c2oc(C(C)(C)C)nc2c1C#N (stereo not shown) [Example 3, 2-tert-Butyl-7-[3-(dimethylamino)cyclopent-1-en-1-yl]-5-methyl-6-phenyl-1,3-benzoxazole-4-carbonitrile]

melting point: 144 to 146 °C
SMILES: Cc1c(-c2ccccc2)c(C2=CC(N(C)C)CC2)c2oc(C3CC3)nc2c1C#N (stereo not shown) [Example 8, 2-Cyclopropyl-7-(3-dimethylaminocyclopent-1-en-1-yl)-5-methyl-6-phenyl-1,3-benzoxazole-4-carbonitrile]

melting point: 211 to 212 °C
SMILES: Cc1c(-c2ccccc2)c(N2CC(N(C)C)C2)c2oc(C(C)(C)C)nc2c1C#N [Example 15, 2-Tert-butyl-5-methyl-7-(3-dimethylaminoazetidin-1-yl)-6-phenyl-1,3-benzoxazole-4-carbonitrile]

melting point: 158 to 159 °C
SMILES: Cc1c(-c2ccco2)c(N2CC[C@H](N(C)C)C2)c2oc(C3CC3)nc2c1C#N [Example 18, 2-Cyclopropyl-7-[(3S)-3-(dimethylamino)pyrrolidin-1-yl]-6-(2-furyl)-5-methyl-1,3-benzoxazole-4-carbonitrile]

melting point: 150 to 151 °C
SMILES: Cc1c(-c2ccccn2)c(N2CC[C@H](N(C)C)C2)c2oc(C3CC3)nc2c1C#N [Example 20, 2-Cyclopropyl-7-[(3S)-3-(dimethylamino)pyrrolidin-1-yl]-5-methyl-6-(pyridin-2-yl)-1,3-benzoxazole-4-carbonitrile]

melting point: 157 to 159 °C
SMILES: Cc1c(-c2cnccn2)c(N2CC[C@H](N(C)C)C2)c2oc(C3CC3)nc2c1C#N [Example 21, 2-Cyclopropyl-7-[(3S)-3-(dimethylamino)pyrrolidin-1-yl]-5-methyl-6-(pyrazin-2-yl)-1,3-benzoxazole-4-carbonitrile]

melting point: 142 °C
SMILES: CC(=O)c1c(C)c(C#N)c2nc(C3CC3)oc2c1N1CC[C@H](N(C)C)C1 [Example 26, 6-Acetyl-2-cyclopropyl-7-[(3S)-3-(dimethylamino)pyrrolidin-1-yl]-5-methyl-1,3-benzoxazole-4-carbonitrile]

SMILES: CN[C@H]1CCN(c2c(-c3ccccc3)c(CF)c(C#N)c3nc(C4CC4)oc23)C1 [Example 140, 2-Cyclopropyl-5-fluoromethyl-7-[(3S)-3-(methylamino)pyrrolidin-1-yl]-6-phenyl-1,3-benzoxazole-4-carbonitrile]
IC80 (C. albicans ATCC MYA-573): 0.5 µg/mL (≈ 1.28 µM) | IC80 (C. albicans ATCC90028): 0.5 µg/mL (≈ 1.28 µM) | IC80 (C. glabrata ATCC48435): 0.125 µg/mL (≈ 0.32 µM)

SMILES: Cc1c(-c2ccsc2)c(N2CC[C@H](N(C)C)C2)c2oc(C3CC3)nc2c1C#N [Example 144-1, 2-Cyclopropyl-7-[(3S)-3-(dimethylamino)pyrrolidin-1-yl]-5-methyl-6-(thiophen-3-yl)-1,3-benzoxazole-4-carbonitrile]
IC80 (C. albicans ATCC MYA-573): 0.25 µg/mL (≈ 0.637 µM) | IC80 (C. albicans ATCC90028): 0.25 µg/mL (≈ 0.637 µM) | IC80 (C. glabrata ATCC48435): 0.032 µg/mL (≈ 0.0815 µM)

SMILES: Cc1c(-c2cc(F)ccc2F)c(N2CC[C@H](N(C)C)C2)c2oc(C3CC3)nc2c1C#N [Example 144-5, 2-Cyclopropyl-6-(2,5-difluorophenyl)-7-[(3S)-3-(dimethylamino)pyrrolidin-1-yl]-5-methyl-1,3-benzoxazole-4-carbonitrile]
IC80 (C. albicans ATCC MYA-573): 0.25 µg/mL (≈ 0.592 µM) | IC80 (C. albicans ATCC90028): 0.125 µg/mL (≈ 0.296 µM) | IC80 (C. glabrata ATCC48435): 0.032 µg/mL (≈ 0.0757 µM)

SMILES: COc1cccc(-c2c(C)c(C#N)c3nc(C4CC4)oc3c2N2CC[C@H](N(C)C)C2)c1 [Example 144-11, 2-Cyclopropyl-7-[(3S)-3-(dimethylamino)pyrrolidin-1-yl]-6-(3-methoxyphenyl)-5-methyl-1,3-benzoxazole-4-carbonitrile]
IC80 (C. albicans ATCC MYA-573): 0.5 µg/mL (≈ 1.2 µM) | IC80 (C. albicans ATCC90028): 0.25 µg/mL (≈ 0.6 µM) | IC80 (C. glabrata ATCC48435): 0.125 µg/mL (≈ 0.3 µM)

SMILES: CN[C@H]1CCN(c2c(-c3cccs3)c(C)c(C#N)c3nc(C(=O)N(C)C)oc23)C1 [Example 145, 4-Cyano-N,N,5-trimethyl-7-[(3S)-3-(methylamino)pyrrolidin-1-yl]-6-(thiophen-2-yl)-1,3-benzoxazole-2-carboxamide]
IC80 (C. albicans ATCC MYA-573): 0.5 µg/mL (≈ 1.22 µM) | IC80 (C. albicans ATCC90028): 0.5 µg/mL (≈ 1.22 µM) | IC80 (C. glabrata ATCC48435): 0.125 µg/mL (≈ 0.305 µM)

SMILES: CN[C@H]1CCN(c2c(-c3cccc(Cl)c3)c(C)c(C#N)c3nc(C(=O)N(C)C)oc23)C1 [Example 146, 6-(3-Chlorophenyl)-4-cyano-N,N,5-trimethyl-7-[(3S)-3-(methylamino)pyrrolidin-1-yl]-1,3-benzoxazole-2-carboxamide]
IC80 (C. albicans ATCC MYA-573): 0.25 µg/mL (≈ 0.571 µM) | IC80 (C. albicans ATCC90028): 0.125 µg/mL (≈ 0.285 µM) | IC80 (C. glabrata ATCC48435): 0.125 µg/mL (≈ 0.285 µM)

SMILES: CN[C@H]1CCN(c2c(-c3cccc(C)c3)c(C)c(C#N)c3nc(C(=O)N(C)C)oc23)C1 [Example 146-2, 4-Cyano-N,N,5-trimethyl-7-[(3S)-3-(methylamino)pyrrolidin-1-yl]-6-(3-methylphenyl)-1,3-benzoxazole-2-carboxamide]
IC80 (C. albicans ATCC MYA-573): 0.25 µg/mL (≈ 0.599 µM) | IC80 (C. albicans ATCC90028): 0.125 µg/mL (≈ 0.299 µM) | IC80 (C. glabrata ATCC48435): 0.063 µg/mL (≈ 0.151 µM)

SMILES: Cc1c(-n2cccc2)c(N2CC[C@H](N(C)C)C2)c2oc(C3CC3)nc2c1C#N [Example 151, 2-Cyclopropyl-7-[(3S)-3-(dimethylamino)pyrrolidin-1-yl]-5-methyl-6-(pyrrol-1-yl)-1,3-benzoxazole-4-carbonitrile]
IC80 (C. albicans ATCC MYA-573): 1 µg/mL (≈ 2.66 µM) | IC80 (C. albicans ATCC90028): 2 µg/mL (≈ 5.33 µM) | IC80 (C. glabrata ATCC48435): 0.25 µg/mL (≈ 0.666 µM)

SMILES: Cc1c(-c2ccccc2)c(N2CCC[C@H]2CN(C)C)c2oc(C3CC3)nc2c1C#N [Example 154, 2-Cyclopropyl-7-{(2S)-2-[(dimethylamino)methyl]pyrrolidin-1-yl}-5-methyl-6-phenyl-1,3-benzoxazole-4-carbonitrile]
IC80 (C. albicans ATCC MYA-573): 1 µg/mL (≈ 2.5 µM) | IC80 (C. albicans ATCC90028): 1 µg/mL (≈ 2.5 µM) | IC80 (C. glabrata ATCC48435): 0.25 µg/mL (≈ 0.624 µM)

SMILES: CNC[C@H]1CCN1c1c(-c2ccccc2)c(C)c(C#N)c2nc(C(=O)N(C)C)oc12 [Example 155]
GI80 (μg/ml) C. albicans ATCC MYA-573 (C. albicans ATCC MYA-573): 2 µg/mL (≈ 4.96 µM) | GI80 (μg/ml) C. albicans ATCC90028 (C. albicans ATCC90028): 0.5 µg/mL (≈ 1.24 µM) | GI80 (μg/ml) C. glabrata ATCC48435 (C. glabrata ATCC48435): 0.125 µg/mL (≈ 0.31 µM)

SMILES: CNC1=CC(c2c(-c3ccccc3)c(C)c(C#N)c3nc(C(=O)N(C)C)oc23)CC1 (stereo not shown) [Example 156-1, 4-Cyano-N,N,5-trimethyl-7-[3-(methylamino)cyclopent-2-enyl]-6-phenyl-1,3-benzoxazole-2-carboxamide]
IC80 (C. albicans ATCC MYA-573): 0.25 µg/mL (≈ 0.624 µM) | IC80 (C. albicans ATCC90028): 0.25 µg/mL (≈ 0.624 µM) | IC80 (C. glabrata ATCC48435): 0.063 µg/mL (≈ 0.157 µM)

SMILES: CN[C@H]1CCN(c2c(-c3csc(C)n3)c(C)c(C#N)c3nc(C(=O)N(C)C)oc23)C1 [Example 158, 4-Cyano-N,N,5-trimethyl-7-[(3S)-3-(methylamino)pyrrolidin-1-yl]-6-(2-methyl-1,3-thiazol-4-yl)-1,3-benzoxazole-2-carboxamide]
GI80 (μg/ml) C. albicans ATCC MYA-573 (C. albicans ATCC MYA-573): 2 µg/mL (≈ 4.71 µM) | GI80 (μg/ml) C. albicans ATCC90028 (C. albicans ATCC90028): 0.5 µg/mL (≈ 1.18 µM) | GI80 (μg/ml) C. glabrata ATCC48435 (C. glabrata ATCC48435): 0.25 µg/mL (≈ 0.589 µM)

SMILES: OC(Cn1cncn1)(Cn1cncn1)c1ccc(F)cc1F [FCZ, Fluconazole, reference compound]
IC80 (C. albicans ATCC MYA-573): > 4 µg/mL | IC80 (C. albicans ATCC90028): 0.25 µg/mL (≈ 0.816 µM) | IC80 (C. glabrata ATCC48435): > 4 µg/mL

SMILES: CCC(C)n1ncn(-c2ccc(N3CCN(c4ccc(OCC5COC(Cn6cncn6)(c6ccc(Cl)cc6Cl)O5)cc4)CC3)cc2)c1=O (stereo not shown) [ITZ, Itraconazole, reference compound]
GI80 (μg/ml) C. albicans ATCC MYA-573 (C. albicans ATCC MYA-573): 0.125 µg/mL (≈ 0.177 µM) | GI80 (μg/ml) C. albicans ATCC90028 (C. albicans ATCC90028): <0.016 µg/mL | GI80 (μg/ml) C. glabrata ATCC48435 (C. glabrata ATCC48435): 0.25 µg/mL (≈ 0.354 µM)
